The values below come from publication PMC11435328, “An Innovative Inhibitor with a New Chemical Moiety Aimed at Biliverdin IXβ Reductase for Thrombocytopenia and Resilient against Cellular Degradation” (Pharmaceutics, 2024).

Read-outs that look alike come from different tables or passages of the source.

The subject of one data set is T1, half-holo BLVRB.
T1 construct: His6 (N, cleaved yes); made in house; host or cells: E. coli BL21(DE3), pET-21b
Briefly: 1H-15N HSQC of half-holo BLVRB with 5-ASA. The note with it: 0.1 mM half-holo BLVRB, 1 mM 5-ASA, HSQC (Figure S3). Format: binding, human. The method, then: All NMR experiments were performed with the Bruker 800 MHz spectrometer at 25 °C. A total of 0.2 mM ^15N-labeled BLVRB or apo-BLVRB was prepared in buffer (pH 6.5, 50 mM Bis-tris, 50 mM NaCl, and 5% D2O), and their ^1H-^15N heteronuclear single-quantum coherence (HSQC) spectra were recorded in the presence and absence of drug molecules. The 1-dimensional (1D) ^1H spectra to monitor the enzyme reactions were conducted in PBS buffer. The chemical shift perturbation (CSP) data were presented using the square root of (ΔH)^2 + [(ΔN)/6]^2 to normalize the relative effects from the CSPs of ^1H and ^15N [44]. The diffusion-ordered spectroscopy (DOSY) spectra were measured using the ledbpgppr2s, with 80 ms diffusion delay, 2 s relaxation delay, and 32 gradient strength increments. The backbone assignments were referenced from BMRB Entry ID: 27463 for holo BLVRB and Entry ID: 27462 for apo BLVRB to assign the spectra in the presence and absence of the drug.
Figure S3. 5-ASA binding of half-holo BLVRB: (A) The 1H-15N HSQC spectra of 0.1 mM half-holo BLVRB in the absence (black) and presence (red) of 1 mM 5-ASA. (B) Chemical shift diﬀerences between half-holo BLVRB and BLVRB in complex with OSK (black) and 5-ASA (red). (C) NMR ti-tration data for binding to half-holo BLVRB. […]

Data set [1] deals with T2, human BLVRB (half-holo BLVRB) (Homo sapiens, UniProt P30043).
T2 construct: His6 (N, cleaved yes); made in house; host or cells: E. coli BL21(DE3), pET-21b
T2 sequence (P30043 1-206): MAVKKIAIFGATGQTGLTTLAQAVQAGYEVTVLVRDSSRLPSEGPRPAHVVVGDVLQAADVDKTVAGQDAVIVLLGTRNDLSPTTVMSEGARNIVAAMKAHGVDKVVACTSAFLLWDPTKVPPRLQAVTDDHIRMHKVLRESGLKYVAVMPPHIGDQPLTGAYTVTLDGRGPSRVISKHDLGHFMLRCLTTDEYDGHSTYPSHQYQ
On the set-up: method as in PMID 34957824. Particulars: ITC, 25 °C; cited from earlier work. (ITC needs no label: the signal is the heat of the interaction.)

Data set [2] deals with T2, human BLVRB (half-holo BLVRB). Briefly: Isothermal titration calorimetry (ITC) of drug binding to half-holo BLVRB. Particulars: 25 °C. The method, then: (§1) The human BLVRB protein was prepared following the previously reported method. Briefly, the N-terminal His6-tagged BLVRB was expressed in the E. coli BL21(DE3) strain using the pET-21b protein expression vector. The transformed E. coli cells were grown in LB and M9 media at 37 °C to express the nonlabeled and isotope-labeled (^15N or ^13C/^15N) BLVRB proteins, respectively. To induce protein expression, 0.5 mM IPTG was added to the cultures when the OD600 reached 0.8, and then the cells were harvested after ~3–4 h. Cells were lysed by sonication in buffer (pH 8.0, 25 mM Tris-HCl, 500 mM NaCl, and 10 mM β-mercaptoethanol). The BLVRB protein was first purified by His-tag affinity column chromatography using the HisTrap HP column (Cytiva). To remove the His-tag, the protein elution was dialyzed in buffer (pH 8.0, 50 mM Tris-HCl, and 1 mM dithiothreitol) overnight at 4 °C, after adding thrombin (~5 units per mg protein). Since thrombin bound to HiTrap-Q HP column at pH 8.0, ion-exchange column chromatography was performed with buffer (pH 8.0, 25 mM Tris-HCl, and 1 mM dithiothreitol), and then the elution was performed with 1.0 M NaCl gradient; BLVRB and thrombin eluted at ~150 and ~300 mM NaCl, respectively. To separate the His6-tagged BLVRB from the completely cleaved BLVRB, the HisTrap HP column was tandemly attached to the next of the HiTrap-Q column. The BLVRB protein was further purified by size exclusion chromatography (SEC) using the HiLoad 16/600 Superdex 75 (Cytiva) with nonbuffered solution (50 mM NaCl and 1 mM dithiothreitol). The protein fractions were concentrated using an ultracentrifugal filter with 10 kDa MWCO (Millipore, Burlington, MA, USA) and then were stored at −70 °C before use. Apo-BLVRB was prepared using the previously reported refolding method, with additional column chromatography steps. Briefly, the purified BLVRB was denatured in buffer (pH 7.5, 25 mM Tris-HCl, 10 mM β-mercaptoethanol, and 6.0 M urea) and then applied to the HisTrap HP column. After washing with buffer (pH 5.0, 25 mM Na-acetate, 10 mM β-mercaptoethanol, and 6.0 M urea), they were eluted with an additional 1.0 M NaCl gradient. After 2-fold dilution with buffer (pH 5.0, 20 mM Na-acetate, 10 mM β-mercaptoethanol, and 6.0 M urea), apo-BLVRB was further purified by cation-exchange column chromatography using the HiTrap-SP column (Cytiva). Protein elution was performed by 1.0 M NaCl gradient in the presence of 6.0 M urea. The protein was refolded by dialysis in buffer (pH 6.5, 50 mM Bis-tris, 150 mM NaCl, and 1 mM DTT). After removing the aggregate (~20%) by centrifuge, it was purified by SEC using the HiLoad 16/600 Superdex 75 with buffer (pH 6.5, 10 mM Bis-tris, 50 mM NaCl, and 1 mM DTT). The apo-BLVRB solution was concentrated and then stored at −70 °C. Although thawing the frozen sample caused ~10% precipitation of apo-BLVRB, the maintenance of the structure was confirmed by ^1H-^15N HSQC spectrum. The concentration was also determined using UV absorption with an extinction coefficient (A280) of 14,440 M^−1⋅cm^−1. The purity was confirmed by SDS-PAGE gel analysis.
The ITC experiment was conducted in buffer (pH 6.5, 50 mM Bis-tris, 50 mM NaCl, and 0.1 mM TCEP) using a Microcal Auto-iTC200 (Malvern Instruments, Malvern, UK) at 25 °C. The calorimetric cell (200 μL) and syringe (40 μL) were loaded with 0.09 mM BLVRB and 1.1 mM drug (OSK or OSA), respectively. The ITC data were analyzed after subtracting the heat from blank injections that were measured under the same conditions but in the absence of BLVRB. Data processing was carried out using the Origin software provided by the manufacturer, where the fittings were performed with a one-site binding model.

For another data set, the target named is T3, BLVRB (Homo sapiens, UniProt P30043).
T3 construct: His6 (N, cleaved yes); made in house; host or cells: E. coli BL21(DE3), pET-21b
T3 sequence (P30043 1-206): T2 sequence (P30043 1-206)
Briefly: BLVRB enzyme activity assay (NADPH absorption at 340 nm, FMN substrate). Type of data set: biochemical. The note with it: for uncompetitive inhibition constant (Kiu) / Ki: 0.5 µM BLVRB, 100 µM FMN, 100 µM NADPH, PBS, 0.5% DMSO, mixed inhibition model; for Ki: read-out: competitive inhibition constant (Kic); for inhibition pattern (Lineweaver–Burk plot): BLVRB in the presence of NADPH; for maximum velocity (Vm): enzyme parameter of BLVRB from the fit of the data set with this inhibitor. The method, then: Enzyme kinetics were monitored using the absorption of NADPH at 340 nm with the SpectraMax Gemini EM Microplate Reader (Molecular Devices, San Jose, CA, USA). The enzyme reactions were conducted with 0.5 µM BLVRB, 100 µM FMN, and 100 µM NADPH in PBS buffer containing 0.5% DMSO in the presence of various concentrations of inhibitors (OSK and OSA). The initial velocities of the reactions were estimated from data collected over 5 min and were fitted to the Michaelis–Menten equation. The inhibition model and inhibition constants were determined using the in-house Python script of nonlinear least squares regression fitting.

For data set [3], the system named is T4, Escherichia coli (E. coli) AzoR.
T4 construct: E. coli DH5α cells were cultured in LB medium to obtain AzoR protein at 37 °C; endogenous in cells; host or cells: E. coli DH5α induced with 2-MHQ; Hitrap-Q anion-exchange fraction
Kind of data set: Cleavage by partially purified AzoR fraction, monitored by 1D 1H NMR. Format: in vitro ADME. The note with it: incubation with column fraction containing AzoR activity and NAD(P)H. The method, then: E. coli DH5α cells were cultured in LB medium to obtain AzoR protein at 37 °C. Since various electrophilic quinones increase the mRNA level of the acpD gene-encoding AzoR protein [36], 0.5 mM methylhydroquinone (2-MHQ) was added to the culture when the optical density of the cells at 600 nm (OD600) reached 0.8. The cells were harvested by centrifugation after ~3–4 h. To enrich the AzoR protein, anion-exchange column chromatography using the Hitrap-Q HP column (Cytiva, Marlborough, MA, USA) was performed, in which the column was pre-equilibrated with buffer (pH 8.0, 25 mM Tris-HCl), and then 1.0 M NaCl gradient was applied to elute proteins. The AzoR activity in the elution fractions was measured by the enzyme activity assay using 0.1 mM menadione and 0.1 mM NADH, in which decreasing absorption at 340 nm was measured following the previously reported method. […]
(§2) All NMR experiments were performed with the Bruker 800 MHz spectrometer at 25 °C. A total of 0.2 mM ^15N-labeled BLVRB or apo-BLVRB was prepared in buffer (pH 6.5, 50 mM Bis-tris, 50 mM NaCl, and 5% D2O), and their ^1H-^15N heteronuclear single-quantum coherence (HSQC) spectra were recorded in the presence and absence of drug molecules. […] The diffusion-ordered spectroscopy (DOSY) spectra were measured using the ledbpgppr2s, with 80 ms diffusion delay, 2 s relaxation delay, and 32 gradient strength increments. […]

The target of another data set is T5, apo-BLVRB (Homo sapiens, UniProt P30043).
T5 construct: His6 (N); made in house; host or cells: E. coli BL21(DE3), pET-21b
T5 sequence (P30043 1-206): T2 sequence (P30043 1-206)
Kind of data set: NMR 1H-15N HSQC chemical shift perturbation titration of apo-BLVRB. Type of data set: binding. Particulars: for Kd: Apo-BLVRB from NMR CSP experiment; for binding to apo-BLVRB: HSQC of apo-BLVRB titrated with drug (Figure S4). The method, then: as §1, with “After 2-fold dilution with buffer (pH 5.0, 20 mM Na-acetate, 10 mM β-mercaptoethanol, and 6.0 M urea), apo-BLVRB was further purified by cation-exchange column chromatography using the HiTrap-SP column (Cytiva). Protein elution was performed by 1.0 M NaCl gradient in the presence of 6.0 M urea. The protein was refolded by dialysis in buffer (pH 6.5, 50 mM Bis-tris, 150 mM NaCl, and 1 mM DTT). After removing the aggregate (~20%) by centrifuge, it was purified by SEC using the HiLoad 16/600 Superdex 75 with buffer (pH 6.5, 10 mM Bis-tris, 50 mM NaCl, and 1 mM DTT). The apo-BLVRB solution was concentrated and then stored at −70 °C. Although thawing the frozen sample caused ~10% precipitation of apo-BLVRB, the maintenance of the structure was confirmed by ^1H-^15N HSQC spectrum.” left out, “The purity was confirmed by SDS-PAGE gel analysis.” left out
as §2

The conditions of data set [4]: cited from earlier work.
The test system of the next data set is rats. On the set-up: method as in PMID 2160137. Particulars: cited from earlier work.

For orientation: Kd means the free concentration of one partner at which half of the binding sites on the other are occupied at equilibrium, for simple one-to-one binding.

Regarding `Nc1ccc(O)c(C(=O)O)c1` [5-ASA, 5-aminosalicylic acid], in the data set with half-holo BLVRB, the “binding to BLVRB” value was “reduced significantly”.
`O=C([O-])c1c(Cl)c(Cl)c(Cl)c(Cl)c1-c1c2cc(Br)c(=O)c(Br)c-2oc2c(Br)c([O-])c(Br)cc12.[Na+].[Na+]` [Phloxine B, phloxine B]: in data set [1], the Kd is 1360 ± 220 nM, the TΔS is 4.12 ± 0.12 kcal/mol, the ΔG is -8.00 ± 0.10 kcal/mol and the ΔH is -3.88 ± 0.06 kcal/mol.
On to `O=C(O)c1cc(/N=N/c2ccc(O)c(C(=O)O)c2)ccc1O` [Olsalazine, olsalazine], for which, in data set [2], the Kd amounted to 150 ± 230 nM, the TΔS is -4.22 ± 0.13 kcal/mol, the ΔG is -9.32 ± 0.09 kcal/mol and the ΔH is -13.54 ± 0.08 kcal/mol. Besides, on BLVRB, the “uncompetitive inhibition constant (Kiu)” value was 0.79 ± 0.06 µM, the Ki is 550 ± 40 nM, the “inhibition pattern (Lineweaver–Burk plot)” value is recorded as “mixed inhibition pattern” and the “maximum velocity (Vm)” value was determined as 4.71 ± 0.09 µM/min. Further, the “cleavage by AzoR” value in data set [3] is “cleavage of its diazenyl bond and the formation of 5-ASA”. On apo-BLVRB, the Kd was 9310 ± 2410 nM and the “binding to apo-BLVRB” value is “able to bind to the apo-BLVRB”. The plasma elimination half-life result in data set [4] is reported as “approximately 1 h”.
On to `O=C(O)c1cc(/C=C/c2ccc(O)c(C(=O)O)c2)ccc1O` [Olsalkene, (E)-5,5′-(ethene-1,2-diyl)bis(2-hydroxybenzoic acid)], for which, in data set [2], the Kd worked out at 140 ± 270 nM, the TΔS is -5.98 ± 0.17 kcal/mol, the ΔG is -9.33 ± 0.11 kcal/mol and the ΔH was -15.31 ± 0.12 kcal/mol. At BLVRB, the “uncompetitive inhibition constant (Kiu)” value is reported as 0.61 ± 0.06 µM, the Ki is 560 ± 100 nM, the “inhibition pattern (Lineweaver–Burk plot)” value is on record as “mixed inhibition pattern” and the “maximum velocity (Vm)” value came to 4.80 ± 0.16 µM/min. For the same compound, the “cleavage by AzoR” value in data set [3] is “remains intact and is not cleaved by AzoR”. In addition, on apo-BLVRB, the Kd stood at 11400 ± 2220 nM and the “binding to apo-BLVRB” value was “able to bind to the apo-BLVRB”.
With `O=C1OC2(c3ccccc31)c1cc(I)c(O)c(I)c1Oc1c2cc(I)c(O)c1I` [erythrosin B], the “effect of chronic administration” value with rats is given as “thyroid stimulation”.
